# According to ChEMBL document CHEMBL1201862, “PubChem BioAssay data set” (2004):
#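 These data come from cells grown in 96-well plates and exposed to compound for 48 hours at five concentrations. Abbreviation: GI50, concentration required for 50% inhibition of growth.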 Activity calls are given as the source filed them. No stated cut-off is given here; in the data, active = GI50 up to about 1.1 µM and inactive = higher.
# Tests used:
# Assay in all cases: DTP human tumour cell line panel, 48 h
# [1] = system: 786-0
# [2] = system: A498
# [3] = system: A549
# [4] = system: ACHN
# [5] = system: CAKI-1
# [6] = system: CCRF-CEM
# [7] = system: COLO 205
# [8] = system: DLD-1
# [9] = system: DMS-114
# [10] = system: DMS-273
# [11] = system: HCC 2998
# [12] = system: HCT-116
# [13] = system: HCT-15
# [14] = system: HL-60
# [15] = system: HOP-18
# [16] = system: HOP-62
# [17] = system: HOP-92
# [18] = system: HT-29
# [19] = system: IGROV-1
# [20] = system: K562
# [21] = system: KM-20L2
# [22] = system: KM12
# [23] = system: LOX IMVI
# [24] = system: LXFL 529
# [25] = system: M14
# [26] = system: MOLT-4
# [27] = system: Malme-3M
# [28] = system: NCI-H226
# [29] = system: NCI-H460
# [30] = system: NCI-H522
# [31] = system: OVCAR-4
# [32] = system: OVCAR-5
# [33] = system: OVCAR-8
# [34] = system: RPMI-8226
# [35] = system: RXF 393
# [36] = system: RXF 631
# [37] = system: SF-268
# [38] = system: SF-295
# [39] = system: SF-539
# [40] = system: SK-MEL-2
# [41] = system: SK-MEL-5
# [42] = system: SK-OV-3
# [43] = system: SN12C
# [44] = system: SNB-19
# [45] = system: SNB-75
# [46] = system: SNB-78
# [47] = system: SW-620
# [48] = system: TK-10
# [49] = system: U-251
# [50] = system: UACC-257
# [51] = system: UACC-62
# [52] = system: UO-31
smiles,measurement,setting,value
COc1cc(O)c(C(=O)C2Cc3ccccc32)c(OC)c1 (configuration not stated),GI50,[1],44.2 µM (inactive)
same,GI50,[2],30 µM (inactive)
same,GI50,[3],35.8 µM (inactive)
same,GI50,[4],50.7 µM (inactive)
same,GI50,[5],25.6 µM (inactive)
same,GI50,[6],19.8 µM (inactive)
same,GI50,[7],> 100 µM (inactive)
same,GI50,[8],46.2 µM (inactive)
same,GI50,[9],27.4 µM (inactive)
same,GI50,[10],43.4 µM (inactive)
same,GI50,[11],49.1 µM (inactive)
same,GI50,[12],38.6 µM (inactive)
same,GI50,[13],32.9 µM
same,GI50,[14],13 µM (inactive)
same,GI50,[15],34.4 µM (inactive)
same,GI50,[16],> 100 µM (inactive)
same,GI50,[17],35.9 µM (inactive)
same,GI50,[18],35.3 µM (inactive)
same,GI50,[19],> 100 µM (inactive)
same,GI50,[20],32.7 µM (inactive)
same,GI50,[21],65.3 µM (inactive)
same,GI50,[22],32.4 µM (inactive)
same,GI50,[23],51.4 µM (inactive)
same,GI50,[24],34 µM (inactive)
same,GI50,[25],33.9 µM (inactive)
same,GI50,[26],16.9 µM (inactive)
same,GI50,[27],35.8 µM (inactive)
same,GI50,[28],22.6 µM (inactive)
same,GI50,[29],61.8 µM (inactive)
same,GI50,[30],32.7 µM (inactive)
same,GI50,[31],64.4 µM (inactive)
same,GI50,[32],35.7 µM (inactive)
same,GI50,[33],48.3 µM (inactive)
same,GI50,[34],16.8 µM (inactive)
same,GI50,[35],20.3 µM (inactive)
same,GI50,[36],86.9 µM (inactive)
same,GI50,[37],67.8 µM (inactive)
same,GI50,[38],86.1 µM (inactive)
same,GI50,[39],> 100 µM (inactive)
same,GI50,[40],34.3 µM (inactive)
same,GI50,[41],29.6 µM (inactive)
same,GI50,[42],> 100 µM (inactive)
same,GI50,[43],46.5 µM (inactive)
same,GI50,[44],> 100 µM (inactive)
same,GI50,[45],37.7 µM (inactive)
same,GI50,[46],> 100 µM (inactive)
same,GI50,[47],59.7 µM (inactive)
same,GI50,[48],> 100 µM (inactive)
same,GI50,[49],64.3 µM (inactive)
same,GI50,[50],47.3 µM (inactive)
same,GI50,[51],57.5 µM (inactive)
same,GI50,[52],33.5 µM (inactive)
